According to EP0840727B1, “3-HYDROXY-2(1H)-[…] AGENTS” (priority 1995, dated 1997):
Marks after values point to notes of the source that are not given here.

Assays:
[1] = Promoting excretion of 238Pu(IV) in mice by injected ligands; type: in vivo; settings: for Pu removal (in words): injected ligands, 30 µmol/kg intraperitoneally one hour after ^238Pu(IV); for percent of injected ^238Pu ± SD at 24 h, tissues: liver / percent of injected ^238Pu ± SD at 24 h, tissues: skeleton / percent of injected ^238Pu ± SD at 24 h, tissues: soft tissue / percent of injected ^238Pu ± SD at 24 h, whole body / percent of injected ^238Pu at 24 h, excreta: feces and GI contents / percent of injected ^238Pu at 24 h, excreta: urine 0-24 h / percent of injected ^238Pu at 24 h, tissues: kidneys: ligand 30 µmol kg^-1 ip at 1 h after iv ^238Pu(IV) citrate, kill at 24 h; for percent of injected ^238Pu at 24 h, excreta: feces and GI contents / percent of injected ^238Pu at 24 h, excreta: urine 0-24 h / percent of injected ^238Pu at 24 h, tissues: kidneys: pooled samples
Description: Animal studies were completed using methods detailed in Radiation Protection Dosimetry, in press, P. W. Durbin et al., "In Vivo Chelation of Am(III), Pu(IV), Np(V) and U(VI) in Mice by TREN-(Me-3,2-HOPO)"; Radiation Protection Dosimetry, 17, No. 1, 1989, p. 351, P. W. Durbin et al., "Removal of ^238Pu(IV) from Mice by Polycatechoylate, -Hydroxamate or -Hydroxypyridinonate Ligands"; Radiation Research, 99, 1984, p. 85, P. W. Durbin et al., "Specific Sequestering Agents for the Actinides ..."; Radiation Research, 99, 1984, p. 106, P. W. Durbin et al., "Removal of Pu and Am from Beagles and Mice ..."; Radiation Research, 81, 1980, p. 170, R. D. Lloyd et al., and P. W. Durbin et al., "Specific Sequestering Agents for the Actinides ...". The foregoing articles are hereby incorporated by reference.
Radionuclides used in the animal studies came from a variety of sources. However, they can be purchased commercially. The ^238Pu(IV) citrate and ^241Am(III) citrate solutions were prepared for animal injection by 8- to 10-fold dilution with 0.14M NaCl (pH 4) of concentrated stock solutions (0.08M sodium citrate buffer) that had been held in frozen storage at Lawrence Berkeley Laboratory (hereinafter LBL) for several years. [The ^238Pu(IV) was originally obtained from D. R. Atherton at the University of Utah Radiobiology Laboratory, Salt Lake City. The ^241Am(III) solution had been obtained many years earlier from the LBL Actinide Chemistry group.]
The novel chelating agents of the present invention and comparative compounds were tested for their effectiveness in promoting excretion ^238Pu(IV) in nice by injected ligands as follows. Mice, in groups of five, each received an intravenous injection of 1850 Bq ^238Pu(IV) in 0.2 mL of citrate buffer. One hour later, 30 µmol/kg of ligand was injected intraperitoneally in 0.5 mL of saline. The mice were killed 24 hours after the Pu injection, frozen, and dissected after partial thawing. The ^238Pu in skeleton, soft tissues, and separated excreta was determined by counting the ^234U L x-rays. Results of removal of ^238Pu(IV) from mice by injected ligands are summarized in Table 3, which also includes data for CaNa3-DTPA and other reference ligands and the Pu-injected controls. […] While the case of multidente 1,2-HOPO and catechoylamide chelating agents, octadentates are always better chelating agents than the corresponding hexadentates and tetradentates.

[2] = In vivo acute toxicity test of injected ligands in mice
Procedure: The test of acute toxicity of novel and comparative ligands was carried out as follows. Groups of five mice were each given a single i.p. injection of […] of ligand and a day for 10 days or given two i.p. injections of […] in 8 hours. The ligand was dissolved in 0.5 to 1.0 ml of saline at pH 7 to 8. After a period of observation, the mice were killed; selected tissues were removed and fixed for histopathological examination; and unusual findings at autopsy were recorded. […]

[3] = protocol I, 100 µmol kg^-1 x 10 daily i.p., study length 11 d
[4] = protocol I, 100 µmol kg^-1 x 10 daily i.p., study length 21 d
[5] = protocol II, 500 µmol kg^-1 x 2 in 8 h, study length 11 d
[6] = protocol IB, 100 µmol kg^-1, study length 5 d
[7] = protocol IA, 100 µmol kg^-1 x 2 daily, study length 3 d
[8] = protocol IA, 100 µmol kg^-1 x 2 daily, study length 11 d

Compound | percent of injected ^238Pu ± SD at 24 h, tissues: liver [1] | percent of injected ^238Pu ± SD at 24 h, tissues: skeleton [1] | percent of injected ^238Pu ± SD at 24 h, tissues: soft tissue [1] | percent of injected ^238Pu ± SD at 24 h, whole body [1] | percent of injected ^238Pu at 24 h, excreta: feces and GI contents [1] | percent of injected ^238Pu at 24 h, excreta: urine 0-24 h [1] | percent of injected ^238Pu at 24 h, tissues: kidneys [1] | also measured
Cn1ccc(C(=O)NCCCCCNC(=O)c2ccn(C)c(=O)c2O)c(O)c1=O [5-LI-Me-3,2-HOPO, 1,5-bis[(3-hydroxy-1-methyl-2-oxo-1,2-dihydropyridin-4-yl)carboxamido]pentane] | 3.1 ± 0.8^d percent of injected ^238Pu | 10 ± 1.2% of injected ^238Pu | 1.9 ± 0.5% of injected ^238Pu | 16 ± 1.9^d percent of injected ^238Pu | 67.6% of injected ^238Pu | 17.5% of injected ^238Pu | 0.3% of injected ^238Pu | Pu removal (in words) [1]: as effective or more effective than the hexadentate and octadentate chelating agents; toxicity (in words) ([2]; even at the relatively high dosage of 2x500 µmol/kg in 8 hours): low toxicity; no. of survivors [2, 3]: 5; percent control mean + SD: body weight [2, 3]: 102 ± 5 percent control; percent control mean + SD: kidney weight [2, 3]: 109 ± 14 percent control; percent control mean + SD: plasma urea N [2, 3]: 89 ± 1 percent control; no. of survivors [2, 4]: 5; percent control mean + SD: body weight [2, 4]: 102 ± 5 percent control; percent control mean + SD: kidney weight [2, 4]: 100 ± 4 percent control; percent control mean + SD: plasma urea N [2, 4]: 101 ± 2 percent control; no. of survivors [2, 5]: 5; percent control mean + SD: body weight [2, 5]: 99 ± 3 percent control; percent control mean + SD: kidney weight [2, 5]: 109 ± 9 percent control; percent control mean + SD: plasma urea N [2, 5]: 98 ± 18 percent control
Cn1ccc(C(=O)NCCCCNC(=O)c2ccn(C)c(=O)c2O)c(O)c1=O [4-LI-Me-3,2-HOPO] | 3.7 ± 1.5^d percent of injected ^238Pu | 11 ± 1.7% of injected ^238Pu | 1.9 ± 0.5% of injected ^238Pu | 17 ± 2.4^d percent of injected ^238Pu | 63% of injected ^238Pu | 19.4% of injected ^238Pu | 0.4% of injected ^238Pu | Pu removal (in words) [1]: as effective or more effective than the hexadentate and octadentate chelating agents; no. of survivors [2, 6]: 0; percent control mean + SD: body weight [2, 6]: 85 ± 8 percent control; percent control mean + SD: kidney weight [2, 6]: 190 ± 63 percent control; percent control mean + SD: plasma urea N [2, 6]: >2000 percent control
Cn1ccc(C(=O)NCCCCCCNC(=O)c2ccn(C)c(=O)c2O)c(O)c1=O [6-LI-Me-3,2-HOPO, 1,6-bis[(3-hydroxy-1-methyl-2-oxo-1,2-dihydropyridin-4-yl)carboxamindo]hexane] | 6.5 ± 3.7^d percent of injected ^238Pu | 12 ± 1.8% of injected ^238Pu | 3.7 ± 1.8% of injected ^238Pu | 23 ± 4.9^d percent of injected ^238Pu | 62.9% of injected ^238Pu | 14.4% of injected ^238Pu | 0.5% of injected ^238Pu | no. of survivors [2, 7]: 5; percent control mean + SD: body weight [2, 7]: 83 ± 3 percent control; percent control mean + SD: kidney weight [2, 7]: 132 ± 11 percent control; percent control mean + SD: plasma urea N [2, 7]: 343 ± 140 percent control; no. of survivors [2, 8]: 3; percent control mean + SD: body weight [2, 8]: 101 ± 5 percent control; percent control mean + SD: kidney weight [2, 8]: 112 ± 13 percent control; percent control mean + SD: plasma urea N [2, 8]: 92 ± 6 percent control
Cn1ccc(C(=O)NCCN(CCNC(=O)c2ccn(C)c(=O)c2O)CCN(CC(=O)O)CC(=O)O)c(O)c1=O [TREN-bis(Me-3,2-HOPO)-bis acetic acid] | 6.6 ± 2.2^d percent of injected ^238Pu | 20 ± 1.7% of injected ^238Pu | 2.7 ± 0.8% of injected ^238Pu | 30 ± 3.6% of injected ^238Pu | 34.6% of injected ^238Pu | 8.7% of injected ^238Pu | 0.5% of injected ^238Pu | 
Cc1c(CNC(=O)c2ccn(C)c(=O)c2O)c(C)c(CNC(=O)c2ccn(C)c(=O)c2O)c(C)c1CNC(=O)c1ccn(C)c(=O)c1O [ME-Me-3,2-HOPO] | 6.1 ± 4.9^d percent of injected ^238Pu | 12 ± 1.8% of injected ^238Pu | 3.0 ± 2.0% of injected ^238Pu | 22 ± 8.5^d percent of injected ^238Pu | 70.1% of injected ^238Pu | 33.5% of injected ^238Pu | 0.9% of injected ^238Pu | 
Cn1ccc(C(=O)NCCCN(CCCNC(=O)c2ccn(C)c(=O)c2O)CCCNC(=O)c2ccn(C)c(=O)c2O)c(O)c1=O [TRPN-Me-3,2-HOPO] | 17 ± 5.0% of injected ^238Pu | 14 ± 3.2% of injected ^238Pu | 2.0 ± 1.1% of injected ^238Pu | 33 ± 5.3% of injected ^238Pu | 11.5% of injected ^238Pu | 55% of injected ^238Pu |  | 
Cn1ccc(C(=O)NCCN(CCCCN(CCNC(=O)c2ccn(C)c(=O)c2O)CCNC(=O)c2ccn(C)c(=O)c2O)CCNC(=O)c2ccn(C)c(=O)c2O)c(O)c1=O [H(4,2)-Me-3,2-HOPO, N,N,N',N'-tetrakis[(3-hydroxy-1-methyl-2-oxo-1,2-dihydropyridin-4-yl)carboxamido-ethyl]-butylenediamine] | 29 ± 6.1% of injected ^238Pu | 12 ± 2.9% of injected ^238Pu | 1.9 ± 1.0% of injected ^238Pu | 46 ± 8.5% of injected ^238Pu | 26.8% of injected ^238Pu | 28% of injected ^238Pu | 1.8% of injected ^238Pu | 
Cn1ccc(C(=O)NCCN(CCCN(CCNC(=O)c2ccn(C)c(=O)c2O)CCNC(=O)c2ccn(C)c(=O)c2O)CCNC(=O)c2ccn(C)c(=O)c2O)c(O)c1=O [H(3,2)-Me-3,2-HOPO, N,N,N',N'-tetrakis[(3-hydroxy-1-methyl-2-oxo-1,2-dihydropyridin-4-yl)carboxamido-ethyl]-propylenediamine] | 14 ± 6.1% of injected ^238Pu | 10 ± 2.0% of injected ^238Pu | 2.4 ± 0.3^d percent of injected ^238Pu | 28 ± 4.8% of injected ^238Pu | 52.1% of injected ^238Pu | 19.5% of injected ^238Pu | 1.2% of injected ^238Pu | 
